Experimental data: the Deep4Chem optical property database
One block for each compound: values may come before it.

Assay: solvent given as SMILES

SMILES: CC(C)(C)c1ccc2c(c1)c1cc(C(C)(C)C)ccc1n2-c1cc(C(=O)c2cccnc2)cc(-n2c3ccc(C(C)(C)C)cc3c3cc(C(C)(C)C)ccc32)c1
- absorption maximum (in Cc1ccccc1): 381 nm

SMILES: Cc1ccc2nc3c(=O)[nH]c(=O)[nH]c3nc2c1C
- absorption maximum (in CC#N): 375 nm

SMILES: CC(=O)c1c2c(cc3ccc(N(C)C)cc13)CCC2
- absorption maximum (in C1CCCCC1): 373 nm
- absorption maximum (in C1CCOC1): 377 nm
- absorption maximum (in C1COCCO1): 376 nm
- absorption maximum (in CC#N): 375 nm
- absorption maximum (in CCO): 377 nm
- absorption maximum (in CS(C)=O): 377 nm
- absorption maximum (in Cc1ccccc1): 376 nm
- absorption maximum (in ClC(Cl)Cl): 377 nm
- absorption maximum (in ClCCl): 377 nm

SMILES: N#Cc1ccc(-c2ccc(C3=CCCCC3)s2)s1
- absorption maximum (in C1CCOC1): 366 nm
- absorption maximum (in CC#N): 366 nm
- absorption maximum (in CCCCCC): 366 nm
- absorption maximum (in CCO): 366 nm
- absorption maximum (in OCCOCCO): 366 nm
- absorption maximum (in c1ccncc1): 369 nm

SMILES: COC(=O)c1ccc2c3ccc(C(=O)OC)c4c(C(=O)OC)ccc(c5ccc(C(=O)OC)c1c25)c43
- absorption maximum (in C1COCCO1): 470 nm
- absorption maximum (in CC#N): 465 nm
- absorption maximum (in CC(C)=O): 465 nm
- absorption maximum (in CC(C)O): 476 nm
- absorption maximum (in CCCCO): 476 nm
- absorption maximum (in CN(C)C=O): 468 nm
- absorption maximum (in CO): 465 nm
- absorption maximum (in ClC(Cl)Cl): 469 nm

SMILES: Oc1ccc2ccccc2c1/C=N/C1CCCCC1/N=C/c1c(O)ccc2ccccc12 (configuration not stated)
- absorption maximum (in CC#N): 397 nm

SMILES: COC(=O)/C=C/c1sc(-c2ccc(N(C)C)cc2)c(-c2cccnc2)c1N
- absorption maximum (in CC#N): 415 nm

SMILES: OC1(c2ccc(-c3cccs3)s2)CCCC1
- absorption maximum (in C1CCOC1): 344 nm
- absorption maximum (in CC#N): 343 nm
- absorption maximum (in CCCCCC): 341 nm
- absorption maximum (in CCO): 342 nm
- absorption maximum (in OCCOCCO): 347 nm
- absorption maximum (in c1ccncc1): 348 nm

SMILES: CCOC(=O)CSc1nc(C)c(CC)c(C#N)c1C#N
- absorption maximum (in c1ccccc1): 357 nm

SMILES: S=C1CCCCC1
- absorption maximum (in CCO): 495 nm

SMILES: Cc1ccc2nc3[nH]c(=O)[nH]c(=O)c3nc2c1
- absorption maximum (in CC#N): 382 nm
- absorption maximum (in ClCCCl): 384 nm

SMILES: N#Cc1ccc2c(c1)C1(c3cc(C#N)ccc3-2)c2ccccc2N(c2ccccc2)c2ccccc21
- absorption maximum (in Cc1ccccc1): 330.33 nm

SMILES: Cc1cc(-c2nc(-c3ccccc3)nc(-c3ccccc3)n2)cc(C)c1N1c2ccccc2CCc2ccccc21
- absorption maximum (in Cc1ccccc1): 392.74 nm

Continued, values first:

- absorption maximum (in CCO): 540 nm
- absorption maximum (in O): 548 nm
SMILES: CN(C)c1ccc2c(-c3ccc(C(=O)[O-])cc3C(=O)[O-])c3ccc(=[N+](C)C)cc-3oc2c1

- absorption maximum (in ClCCl): 332 nm
SMILES: COc1ccc(-c2cccc3ncc(-c4ccccc4)n23)cc1

- absorption maximum (in ClCCl): 499 nm
SMILES: CCCC1=C(CCC)c2cccc3c2c(cc2nc4ccccc4nc23)O1

- absorption maximum (in CCO): 492 nm
SMILES: CN1C(=CC2=C(O)C(=O)C2=C2C(=O)c3ccccc3C2=O)C(C)(C)c2ccccc21

- absorption maximum (in C1COCCO1): 445 nm
- absorption maximum (in CC#N): 448 nm
- absorption maximum (in ClCCl): 453 nm
SMILES: CN(C)c1ccc(/C=C/c2nc3cc(Br)ccc3nc2-c2ccccc2)cc1

- absorption maximum (in C1CCOC1): 361 nm
- absorption maximum (in CCOC(C)=O): 360 nm
SMILES: CCn1c2ccc(/C=C/c3ccc4c(c3)c3cc(-c5nc6ccccc6s5)ccc3n4CC)cc2c2cc(-c3nc4ccccc4s3)ccc21

- absorption maximum (in CC#N): 391 nm
- absorption maximum (in CO): 395 nm
- absorption maximum (in ClCCl): 399 nm
SMILES: CCOC(=O)c1ccc(O)c(-c2[nH]c(=O)n3c2-c2ccccc2C3=O)c1

- absorption maximum (in CC#N): 380 nm
SMILES: CCOC(=O)c1c2c3c(ccc(F)c3c3cc4c(cc13)[Si](C)(C)O[Si]4(C)C)N(C)C2=O

- absorption maximum (in C1CCOC1): 455 nm
- absorption maximum (in CCCCCC): 447 nm
- absorption maximum (in ClCCl): 465 nm
- absorption maximum (in c1ccccc1): 457 nm
SMILES: O=C1OC(=O)c2ccc(N(c3ccccc3)c3ccc4ccc5cccc6ccc3c4c56)c3cccc1c23

- absorption maximum (in C1CCOC1): 380 nm
SMILES: [O-]c1ccccc1/C=N/c1ccccc1/N=C/c1ccccc1[O-]

- absorption maximum (in C1CCCCC1): 333 nm
- absorption maximum (in C1COCCO1): 334 nm
- absorption maximum (in CC#N): 332 nm
- absorption maximum (in CC(C)(C)O): 336 nm
- absorption maximum (in CC(C)O): 338 nm
- absorption maximum (in CCCCCC): 331 nm
- absorption maximum (in CCCCO): 337 nm
- absorption maximum (in CCOC(C)=O): 334 nm
- absorption maximum (in CN(C)C=O): 337 nm
- absorption maximum (in CO): 336 nm
- absorption maximum (in ClCCl): 336 nm
- absorption maximum (in O): 338 nm
SMILES: O=C1Nc2ccccc2/C1=C/C(=O)c1ccc(O)cc1

- absorption maximum (in C1CCCCC1): 595 nm
- absorption maximum (in CCOC(C)=O): 599 nm
SMILES: CC1=[N+]2C(=C(c3ccccc3C)c3ccc(C)n3[B-]2(F)F)C=C1c1cc2n(c1)[B-](F)(F)[N+]1=CC=CC1=C2c1c(C)cc(C)cc1C
